From ChEMBL document CHEMBL5154776, “Discovery of Potent and Orally Bioavailable Platelet-Derived Growth Factor Receptor (PDGFR) Inhibitors for the Treatment of Osteosarcoma” (J Med Chem, 2022)
The source made the active and inactive calls.

Legend:
HOS-TE85 [1] = assay: Induction of cell cycle arrest in human MNNG/HOS cells assessed as accumulation of cells at G2/M phase incubated for 48 hrs by propidium iodide staining based flow cytometry analysis; assay type: functional; details: dose 0.1-0.4 µM, DDE = dose-dependent effect
MG-63 [2] = assay: Induction of cell cycle arrest in human MG-63 cells assessed as accumulation of cells at G0/G1 phase incubated for 48 hrs by propidium iodide staining based flow cytometry analysis; assay type: functional; details: dose 0.1-0.4 µM, DDE = dose-dependent effect
MG-63 [3] = assay: Induction of DNA damage in human MG-63 cells assessed as tail DNA at 0.1 to 0.4 uM measured after 48 hrs by comet assay; assay type: functional, cell-based; details: dose 0.1-0.4 µM
[4] = molecular target: T1, Platelet-derived growth factor receptor beta (Homo sapiens, UniProt P09619); assay: Inhibition of PDGFRbeta-mediated downstream signalling in human MNNG/HOS cells assessed as suppression of STAT3 phosphorylation at 0.1 to 0.4 uM measured after 48 hrs by western blot analysis; assay type: cell-based; details: dose 0.1-0.4 µM
T1 sequence (P09619 whole entry): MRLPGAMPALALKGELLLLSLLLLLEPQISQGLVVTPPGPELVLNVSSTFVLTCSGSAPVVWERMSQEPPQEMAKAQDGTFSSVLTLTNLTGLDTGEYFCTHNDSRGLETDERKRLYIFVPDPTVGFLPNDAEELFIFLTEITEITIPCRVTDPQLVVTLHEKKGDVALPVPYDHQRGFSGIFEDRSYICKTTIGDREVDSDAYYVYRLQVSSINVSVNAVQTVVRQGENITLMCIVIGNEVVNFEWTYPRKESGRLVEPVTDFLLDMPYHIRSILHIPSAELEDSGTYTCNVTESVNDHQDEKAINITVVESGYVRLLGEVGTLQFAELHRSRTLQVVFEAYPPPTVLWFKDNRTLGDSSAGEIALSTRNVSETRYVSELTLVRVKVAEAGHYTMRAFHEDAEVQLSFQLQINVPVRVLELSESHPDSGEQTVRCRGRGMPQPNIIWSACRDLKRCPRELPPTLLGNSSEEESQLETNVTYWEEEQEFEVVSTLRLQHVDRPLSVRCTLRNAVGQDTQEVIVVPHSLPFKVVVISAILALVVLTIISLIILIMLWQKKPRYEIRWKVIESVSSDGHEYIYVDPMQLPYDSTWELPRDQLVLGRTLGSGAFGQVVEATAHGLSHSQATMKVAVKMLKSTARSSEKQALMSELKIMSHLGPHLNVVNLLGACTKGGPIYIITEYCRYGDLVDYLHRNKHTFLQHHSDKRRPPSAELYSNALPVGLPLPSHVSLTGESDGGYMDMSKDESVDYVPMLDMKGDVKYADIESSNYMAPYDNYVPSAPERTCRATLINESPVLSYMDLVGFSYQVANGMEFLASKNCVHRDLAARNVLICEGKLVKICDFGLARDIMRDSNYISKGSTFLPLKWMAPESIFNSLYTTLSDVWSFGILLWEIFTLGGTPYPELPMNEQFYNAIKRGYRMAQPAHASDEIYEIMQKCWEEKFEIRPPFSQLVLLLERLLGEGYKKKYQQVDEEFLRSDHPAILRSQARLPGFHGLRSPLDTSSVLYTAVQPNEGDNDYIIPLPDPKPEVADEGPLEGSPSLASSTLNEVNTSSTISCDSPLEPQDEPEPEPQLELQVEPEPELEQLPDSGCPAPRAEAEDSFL

[5] = molecular target: T1, Platelet-derived growth factor receptor beta; assay: Inhibition of PDGFRbeta-mediated downstream signalling in human MNNG/HOS cells assessed as suppression of AKT phosphorylation at 0.1 to 0.4 uM measured after 48 hrs by western blot analysis; assay type: cell-based; details: dose 0.1-0.4 µM
HOS-TE85 [6] = assay: Inhibition of cell migration in human MNNG/HOS cells assessed as reduction of cell mobility after 48 hrs by scratch-wound healing assay; assay type: functional, cell-based; details: dose 0.1-0.4 µM, DDE = dose-dependent effect
HOS-TE85 [7] = assay: Inhibition of cell invasion in human MNNG/HOS cells at 0.1 to 0.4 uM measured after 48 hrs by crystal violet staining based transwell assay; assay type: functional; details: dose 0.1-0.4 µM
MG-63 [8] = assay: Inhibition of cell invasion in human MG-63 cells at 0.1 to 0.4 uM measured after 48 hrs by crystal violet staining based transwell assay; assay type: functional; details: dose 0.1-0.4 µM
MG-63 [9] = assay: Inhibition of cell migration in human MG-63 cells at 0.1 to 0.4 uM measured for 48 hrs scratch wound healing migration assay; assay type: functional, cell-based; details: dose 0.1-0.4 µM
MG-63 [10] = assay: Antimigratory activity against human MG-63 cells assessed as expression of FAK by measuring fluorescence at 0.1 to 0.4 uM upto 48 hrs by DAPI staining based immunofluorescence microscopic analysis; assay type: functional, cell-based; details: dose 0.1-0.4 µM
MG-63 [11] = assay: Inhibition of alpha tubulin expression in human MG-63 cells at 0.1 to 0.4 uM measured after 48 hrs by western blot analysis; assay type: functional, cell-based; details: dose 0.1-0.4 µM
MG-63 [12] = assay: Inhibition of FAK expression in human MG-63 cells incubated for 48 hrs by Western blot analysis; assay type: functional, cell-based; details: dose 0.1-0.4 µM, DDE = dose-dependent effect
[13] = molecular target: Focal adhesion kinase 1 (Homo sapiens) (UniProt Q05397); assay: Inhibition of FAK phosphorylation in human MNNG/HOS cells incubated for 48 hrs by Western blot analysis; assay type: cell-based; details: dose 0.1-0.4 µM, DDE = dose-dependent effect
Sequence of Focal adhesion kinase 1 (Homo sapiens) (Q05397 2-1052 limits assumed): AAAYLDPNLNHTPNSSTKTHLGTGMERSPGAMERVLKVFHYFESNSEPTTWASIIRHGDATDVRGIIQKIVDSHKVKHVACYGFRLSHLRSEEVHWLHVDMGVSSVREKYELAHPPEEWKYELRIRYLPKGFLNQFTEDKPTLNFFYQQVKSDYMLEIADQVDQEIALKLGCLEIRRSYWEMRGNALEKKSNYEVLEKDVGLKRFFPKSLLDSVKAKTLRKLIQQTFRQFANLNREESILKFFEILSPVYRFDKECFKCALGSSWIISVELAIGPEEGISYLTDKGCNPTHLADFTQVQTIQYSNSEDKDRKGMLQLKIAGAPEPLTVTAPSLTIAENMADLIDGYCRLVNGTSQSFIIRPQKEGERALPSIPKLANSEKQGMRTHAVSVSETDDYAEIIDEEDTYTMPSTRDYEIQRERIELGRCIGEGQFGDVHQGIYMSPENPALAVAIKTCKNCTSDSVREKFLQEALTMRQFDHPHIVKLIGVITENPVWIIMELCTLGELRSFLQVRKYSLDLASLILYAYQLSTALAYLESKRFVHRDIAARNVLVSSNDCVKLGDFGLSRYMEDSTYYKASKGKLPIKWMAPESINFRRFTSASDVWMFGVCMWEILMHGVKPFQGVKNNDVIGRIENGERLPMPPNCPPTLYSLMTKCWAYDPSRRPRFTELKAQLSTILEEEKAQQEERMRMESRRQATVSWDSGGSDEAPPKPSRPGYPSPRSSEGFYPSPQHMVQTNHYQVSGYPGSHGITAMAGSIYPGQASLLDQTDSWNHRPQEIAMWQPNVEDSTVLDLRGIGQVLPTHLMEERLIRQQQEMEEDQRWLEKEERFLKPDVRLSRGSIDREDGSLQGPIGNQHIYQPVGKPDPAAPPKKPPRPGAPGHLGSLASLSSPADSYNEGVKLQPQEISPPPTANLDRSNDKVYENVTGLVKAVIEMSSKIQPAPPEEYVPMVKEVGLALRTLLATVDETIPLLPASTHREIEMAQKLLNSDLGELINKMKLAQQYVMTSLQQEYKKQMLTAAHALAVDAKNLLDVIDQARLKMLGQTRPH

[14] = molecular target: T1, Platelet-derived growth factor receptor beta; assay: Binding affinity to PDGFRbeta (unknown origin)
[15] = molecular target: T1, Platelet-derived growth factor receptor beta; assay: Inhibition of PDGFRbeta phosphorylation in human MG-63 cells incubated for 48 hrs by Western blot analysis; assay type: cell-based
HOS-TE85 [16] = assay: Induction of apoptosis in human MNNG/HOS cells xenografted in BALB/c nude mouse at 15 to 30 mg/kg/day, po dosed for 14 days by immunohistochemistry analysis; assay type: functional, organism-based; details: dose lower […], dose upper 30.0 mg/kg/day, time 14.0 day
HOS-TE85 [17] = assay: In vivo inhibition of PDGFRbeta-mediated downstream signalling in human MNNG/HOS cells xenografted in BALB/c nude mouse assessed as phosphorylation of PDGFR in tumor tissue at 15 to 30 mg/kg/day, po for 14 days; assay type: functional, organism-based; details: dose lower […], dose upper 30.0 mg/kg/day, time 14.0 day

CCN1CCN(c2ccc(Nc3ncc(C)c(Nc4ccc5cn[nH]c5c4)n3)cc2OC)CC1
active: Activity (HOS-TE85 [1]) Dde | Activity (MG-63 [2]) Dde | Activity (MG-63 [3]) | inhibition [4] | inhibition [5] | inhibition (HOS-TE85 [6]) Dde | inhibition (HOS-TE85 [7]) | inhibition (MG-63 [8]) | inhibition (MG-63 [9]) | Activity (MG-63 [10]) | inhibition (MG-63 [11]) | inhibition (MG-63 [12]) Dde | inhibition [13] Dde | Activity [14] | inhibition [15] | Activity (HOS-TE85 [16]) | inhibition (HOS-TE85 [17])
